Reference: ChEMBL document CHEMBL1142318, “Azetidine based transition state analogue inhibitors of N-ribosyl hydrolases and phosphorylases” (J Med Chem, 2008)

Tests used:
[1] = molecular target: T1, Purine nucleoside phosphorylase (Plasmodium falciparum, UniProt Q8T9Z7); experiment: Inhibition of Plasmodium falciparum PNP
T1 sequence (Q8T9Z7 whole entry): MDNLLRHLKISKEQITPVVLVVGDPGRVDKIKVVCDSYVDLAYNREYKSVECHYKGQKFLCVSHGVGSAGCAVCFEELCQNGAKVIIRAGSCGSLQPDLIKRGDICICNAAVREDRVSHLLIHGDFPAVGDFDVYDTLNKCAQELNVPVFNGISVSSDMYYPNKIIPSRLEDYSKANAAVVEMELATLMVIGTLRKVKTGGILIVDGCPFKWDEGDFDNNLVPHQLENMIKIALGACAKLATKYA

[2] = molecular target: 5'-methylthioadenosine/S-adenosylhomocysteine nucleosidase (Escherichia coli O157:H7, UniProt P0AF14)
[3] = molecular target: T2, S-methyl-5'-thioadenosine phosphorylase (Homo sapiens, UniProt Q13126); experiment: Inhibition of human MTAP
T2 sequence (Q13126 whole entry): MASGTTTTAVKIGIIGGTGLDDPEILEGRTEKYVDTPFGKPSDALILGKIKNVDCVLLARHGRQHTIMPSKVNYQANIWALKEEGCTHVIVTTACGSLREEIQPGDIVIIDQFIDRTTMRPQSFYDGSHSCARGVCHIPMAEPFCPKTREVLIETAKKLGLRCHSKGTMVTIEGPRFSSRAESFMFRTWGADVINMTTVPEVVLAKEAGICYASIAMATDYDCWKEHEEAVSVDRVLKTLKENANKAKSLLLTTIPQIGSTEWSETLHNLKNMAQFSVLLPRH

[4] = molecular target: T3, 5'-methylthioadenosine/S-adenosylhomocysteine nucleosidase (Streptococcus pneumoniae serotype 4 (strain ATCC BAA-334 / TIGR4), UniProt A0A0H2UPP7); experiment: Inhibition of Streptococcus pneumoniae MTAN
T3 sequence (A0A0H2UPP7 whole entry): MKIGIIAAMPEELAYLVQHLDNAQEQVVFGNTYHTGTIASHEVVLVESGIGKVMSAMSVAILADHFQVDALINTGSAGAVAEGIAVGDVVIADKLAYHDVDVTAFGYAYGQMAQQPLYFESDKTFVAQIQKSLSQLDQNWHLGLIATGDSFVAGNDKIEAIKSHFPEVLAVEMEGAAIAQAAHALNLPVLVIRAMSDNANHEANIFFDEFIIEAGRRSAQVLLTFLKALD

[5] = molecular target: T4, Purine nucleoside phosphorylase (Homo sapiens, UniProt P00491); experiment: Inhibition of human PNP
T4 sequence (P00491 whole entry): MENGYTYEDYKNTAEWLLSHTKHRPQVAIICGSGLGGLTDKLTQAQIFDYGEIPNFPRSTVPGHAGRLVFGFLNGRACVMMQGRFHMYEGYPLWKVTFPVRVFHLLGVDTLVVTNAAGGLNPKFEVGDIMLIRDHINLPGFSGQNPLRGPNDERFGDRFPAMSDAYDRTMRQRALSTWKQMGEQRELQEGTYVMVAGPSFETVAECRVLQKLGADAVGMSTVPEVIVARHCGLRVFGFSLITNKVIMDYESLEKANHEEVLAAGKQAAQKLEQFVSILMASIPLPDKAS

[6] = molecular target: T5, Purine nucleoside phosphorylase (Bos taurus, UniProt P55859); experiment: Inhibition of bovine PNP
T5 sequence (P55859 whole entry): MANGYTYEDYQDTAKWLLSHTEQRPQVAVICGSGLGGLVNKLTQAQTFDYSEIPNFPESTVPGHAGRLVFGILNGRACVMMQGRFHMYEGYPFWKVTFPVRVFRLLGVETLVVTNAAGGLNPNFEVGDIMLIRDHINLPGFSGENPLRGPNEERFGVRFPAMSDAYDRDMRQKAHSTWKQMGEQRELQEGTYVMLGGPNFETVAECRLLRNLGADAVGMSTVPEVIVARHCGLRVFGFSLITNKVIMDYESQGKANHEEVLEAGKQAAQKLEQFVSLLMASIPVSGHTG

Chain of 5'-methylthioadenosine/S-adenosylhomocysteine nucleosidase (Escherichia coli O157:H7, UniProt P0AF14) (P0AF14 whole entry): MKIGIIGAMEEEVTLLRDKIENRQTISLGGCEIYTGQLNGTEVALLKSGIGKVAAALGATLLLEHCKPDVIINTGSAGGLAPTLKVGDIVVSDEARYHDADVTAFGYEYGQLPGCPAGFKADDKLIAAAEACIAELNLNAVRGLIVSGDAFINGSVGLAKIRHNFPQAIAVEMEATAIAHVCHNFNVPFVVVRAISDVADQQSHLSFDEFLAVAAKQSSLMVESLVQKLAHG

| SMILES | Ki [1] [nM] | Ki [2] [nM] | Ki [3] [nM] | Ki [4] [nM] | Ki [5] [nM] | Ki [6] [nM] |
| --- | --- | --- | --- | --- | --- | --- |
| O=c1[nH]cnc2c(CN3CC(CO)C3)c[nH]c12 | > 10000 |  |  |  |  |  |
| CSC[C@H]1CN(Cc2c[nH]c3c(N)ncnc23)C[C@@H]1O |  | 0.002 | 0.09 | 24 |  |  |
| CSCC1CN(Cc2c[nH]c3c(N)ncnc23)C1 |  | 0.45 |  | 84 |  |  |
| O=c1[nH]cnc2c(CN3C(CO)CC3CO)c[nH]c12 (stereo not drawn) | 1290 |  |  |  | 12.9 | 16 |
| CSCC1(CO)CN(Cc2c[nH]c3c(N)ncnc23)C1 |  | 0.84 |  | 150 |  |  |
| O=c1[nH]cnc2c(CN3CC(CO)(CO)C3)c[nH]c12 | > 10000 |  |  |  |  |  |
| O=c1[nH]cnc2c(CN3[C@@H](CO)C[C@@H]3CO)c[nH]c12 (racemic) | 580 |  |  |  | 280 | 360 |
| O=c1[nH]cnc2c(CN3C[C@H](CO)[C@@H](O)C3)c[nH]c12 [ULODESINE] | 0.5 |  |  |  | 0.0107 | 0.1 |
